Measured values taken from ChEMBL document CHEMBL5724914, “Linking interpersonal differences in gut microbiota composition and drug biotransformation activity” (2024).

Key:
[1] = (§1) The drug is tested on Z-030 corresponding to mouse gut metagenome with ENA study accession number: PRJEB37062 and ENA sample accession number: ERS12561829 for biotransformation under anaerobic condition. The drug concentrations were measured over 9 timepoints collected between 0 and 24 hours of incubation by liquid-chromatography-coupled mass spectrometry (LC–MS); conditions: 2 µM
[2] = as §1, with “Z-029” for “Z-030”, “rat” for “mouse”, “ERS12561828” for “ERS12561829”; conditions: 2 µM
[3] = as §1, with “Z-027” for “Z-030”, “to” for “to mouse gut”, “ERS12561826” for “ERS12561829”; conditions: 2 µM
[4] = as §1, with “Z-018” for “Z-030”, “pig” for “mouse”, “ERS12561817” for “ERS12561829”; conditions: 2 µM
[5] = as §1, with “Z-014” for “Z-030”, “rat” for “mouse”, “ERS12561814” for “ERS12561829”; conditions: 2 µM
[6] = as §1, with “Z-009” for “Z-030”, “pig” for “mouse”, “ERS12561809” for “ERS12561829”; conditions: 2 µM
[7] = as §1, with “Z-008” for “Z-030”, “to” for “to mouse gut”, “ERS12561808” for “ERS12561829”; conditions: 2 µM
[8] = as §1, with “Z-007” for “Z-030”, “rat” for “mouse”, “ERS12561807” for “ERS12561829”; conditions: 2 µM
[9] = as §1, with “Z-003” for “Z-030”, “pig” for “mouse”, “ERS12561803” for “ERS12561829”; conditions: 2 µM
[10] = as §1, with “Z-001” for “Z-030”, “ERS12561801” for “ERS12561829”; conditions: 2 µM
[11] = as §1, with “WLS-370” for “Z-030”, “human” for “mouse”, “ERS12561793” for “ERS12561829”; conditions: 2 µM
[12] = as §1, with “WLS-098” for “Z-030”, “human” for “mouse”, “ERS12561754” for “ERS12561829”; conditions: 2 µM
[13] = as §1, with “WLS-082” for “Z-030”, “human” for “mouse”, “ERS12561751” for “ERS12561829”; conditions: 2 µM
[14] = as §1, with “WLS-073” for “Z-030”, “human” for “mouse”, “ERS12561749” for “ERS12561829”; conditions: 2 µM
[15] = as §1, with “WLS-069” for “Z-030”, “human” for “mouse”, “ERS12561748” for “ERS12561829”; conditions: 2 µM
[16] = human gut metagenome, 24 h, 2 µM
[17] = human gut metagenome, 24 h, 2 µM; remark: listed apart in the source
[18] = human gut metagenome, 24 h, 2 µM; remark: listed apart in the source
[19] = human gut metagenome, 24 h, 2 µM; remark: listed apart in the source
[20] = human gut metagenome, 24 h, 2 µM; remark: listed apart in the source
Also: call rule not given here.

Compound | Bacterial Biotransformation [1] | Bacterial Biotransformation [2] | Bacterial Biotransformation [3] | Bacterial Biotransformation [4] | Bacterial Biotransformation [5] | Bacterial Biotransformation [6] | Bacterial Biotransformation [7] | Bacterial Biotransformation [8] | Bacterial Biotransformation [9] | Bacterial Biotransformation [10] | Bacterial Biotransformation [11] | Bacterial Biotransformation [12] | Bacterial Biotransformation [13] | Bacterial Biotransformation [14] | Bacterial Biotransformation [15] | Bacterial Biotransformation [16] | Bacterial Biotransformation [17] | Bacterial Biotransformation [18] | Bacterial Biotransformation [19] | Bacterial Biotransformation [20]
CN(C)C(=O)Oc1cc(OC(=O)N(C)C)cc(C(O)CNC(C)(C)C)c1 (stereo not given) [BAMBUTEROL] | Compound NOT metabolized | Compound NOT metabolized | Compound NOT metabolized | Compound NOT metabolized | Compound NOT metabolized | Compound metabolized | Compound NOT metabolized | Compound NOT metabolized | Compound NOT metabolized | Compound metabolized | Compound NOT metabolized | Compound metabolized | Compound NOT metabolized | Compound NOT metabolized | Compound NOT metabolized | Compound metabolized | Compound NOT metabolized | Compound metabolized | Compound metabolized | Compound metabolized
CC(NC(C)(C)C)C(=O)c1cccc(Cl)c1 (stereo not given) [BUPROPION] | Compound NOT metabolized | Compound NOT metabolized | Compound NOT metabolized | Compound metabolized | Compound NOT metabolized | Compound NOT metabolized | Compound NOT metabolized | Compound NOT metabolized | Compound NOT metabolized | Compound NOT metabolized | Compound NOT metabolized | Compound NOT metabolized | Compound NOT metabolized | Compound NOT metabolized | Compound NOT metabolized | Compound NOT metabolized | Compound NOT metabolized | Compound NOT metabolized | Compound NOT metabolized | Compound NOT metabolized
CCCCCNC(=N)N/N=C/c1c[nH]c2ccc(OC)cc12.O=C(O)/C=C\C(=O)O [TEGASEROD MALEATE] | Compound NOT metabolized | Compound NOT metabolized | Compound NOT metabolized | Compound NOT metabolized | Compound NOT metabolized | Compound metabolized | Compound NOT metabolized | Compound NOT metabolized | Compound NOT metabolized | Compound NOT metabolized | Compound NOT metabolized | Compound NOT metabolized | Compound metabolized | Compound metabolized | Compound metabolized | Compound NOT metabolized | Compound NOT metabolized | Compound NOT metabolized | Compound NOT metabolized | Compound NOT metabolized
CC(C)(C)N.CCC[C@H](N[C@@H](C)C(=O)N1[C@H](C(=O)O)C[C@@H]2CCCC[C@@H]21)C(=O)OCC [PERINDOPRIL ERBUMINE] | Compound NOT metabolized | Compound NOT metabolized | Compound NOT metabolized | Compound metabolized | Compound NOT metabolized | Compound metabolized | Compound NOT metabolized | Compound NOT metabolized | Compound metabolized | Compound NOT metabolized | Compound metabolized | Compound metabolized | Compound metabolized | Compound NOT metabolized | Compound metabolized | Compound metabolized | Compound metabolized | Compound metabolized | Compound metabolized | Compound metabolized
CC#C[C@]1(O)CC[C@H]2[C@@H]3CCC4=CC(=O)CCC4=C3[C@@H](c3ccc(N(C)C)cc3)C[C@@]21C [MIFEPRISTONE] | Compound NOT metabolized | Compound NOT metabolized | Compound NOT metabolized | Compound metabolized | Compound NOT metabolized | Compound metabolized | Compound metabolized | Compound NOT metabolized | Compound metabolized | Compound NOT metabolized | Compound NOT metabolized | Compound NOT metabolized | Compound metabolized | Compound NOT metabolized | Compound metabolized | Compound NOT metabolized | Compound NOT metabolized | Compound metabolized | Compound NOT metabolized | Compound metabolized
CC12CC3CC(C)(C1)CC(N)(C3)C2 [MEMANTINE] | Compound NOT metabolized | Compound NOT metabolized | Compound NOT metabolized | Compound NOT metabolized | Compound NOT metabolized | Compound NOT metabolized | Compound NOT metabolized | Compound NOT metabolized | Compound NOT metabolized | Compound NOT metabolized | Compound NOT metabolized | Compound NOT metabolized | Compound NOT metabolized | Compound NOT metabolized | Compound NOT metabolized | Compound NOT metabolized | Compound NOT metabolized | Compound NOT metabolized | Compound NOT metabolized | Compound metabolized
C=C[C@H]1CN2CC[C@H]1C[C@H]2[C@H](O)c1ccnc2ccc(OC)cc12.C=C[C@H]1CN2CC[C@H]1C[C@H]2[C@H](O)c1ccnc2ccc(OC)cc12.O.O.O=S(=O)(O)O [QUININE SULFATE] | Compound NOT metabolized | Compound NOT metabolized | Compound NOT metabolized | Compound NOT metabolized | Compound NOT metabolized | Compound NOT metabolized | Compound NOT metabolized | Compound NOT metabolized | Compound NOT metabolized | Compound NOT metabolized | Compound NOT metabolized | Compound metabolized | Compound NOT metabolized | Compound NOT metabolized | Compound NOT metabolized | Compound NOT metabolized | Compound NOT metabolized | Compound metabolized | Compound NOT metabolized | Compound metabolized
O=C(CCCN1CCC2(CC1)C(=O)NCN2c1ccccc1)c1ccc(F)cc1 [SPIPERONE] | Compound NOT metabolized | Compound NOT metabolized | Compound NOT metabolized | Compound NOT metabolized | Compound NOT metabolized | Compound metabolized | Compound NOT metabolized | Compound NOT metabolized | Compound NOT metabolized | Compound NOT metabolized | Compound NOT metabolized | Compound metabolized | Compound NOT metabolized | Compound NOT metabolized | Compound metabolized | Compound NOT metabolized | Compound NOT metabolized | Compound metabolized | Compound NOT metabolized | Compound NOT metabolized
